# Data published in publication PMC10141580, “Cyclic Dichalcogenides Extend the Reach of Bioreductive Prodrugs to Harness Thiol/Disulfide Oxidoreductases: Applications to seco-Duocarmycins Targeting the Thioredoxin System” (ACS Central Science, 2023).
# “And” between values parts separate entries of the source, which are not always exact repeats. Equal entries are not always repeated. Where two headings read alike, the source gives them in different places.
# System: NCI-60 standardized human tumor cell line panel
# Assay: cells
# Format: cell-based
smiles,measurement,setting,value
COc1cc2cc(C(=O)N3C[C@@H](CCl)c4c3cc(OC(=O)N(CCC(=O)N3CCN(C)CC3)C3CCCCC3)c3ccccc43)[nH]c2c(OC)c1OC [P-CC60-CBI-TMI],GI50,"SN12C, read-out: GI50",1.2 µM
same,GI50,"SNB-19, read-out: GI50",2.2 µM
same,GI50,"SR, read-out: GI50",0.28 µM
same,GI50,"SW-620, read-out: GI50",1.9 µM
same,GI50,"T-47D, read-out: GI50",1.9 µM
same,NCI-60 screening: Log(GI50),"TK-10 (RE) cell line, log10 of GI50 in M",-5.55
same,GI50,"TK-10 (RE) cell line, read-out: NCI-60 screening: Raw GI50",2.8 µM
same,GI50,"TK-10, read-out: GI50",2.8 µM
same,GI50,"U251, read-out: GI50",1.5 µM
same,GI50,"UACC-62, read-out: GI50",1.5 µM
same,GI50,"UACC-257, read-out: GI50",2 µM
same,NCI-60 screening: Log(GI50),"cell line A549/ATCC (LC:A549/ATCC), TMI sheet",-5.7
same,GI50,"cell line A549/ATCC (LC:A549/ATCC), TMI sheet, read-out: NCI-60 screening: Raw GI50",2 µM
same,NCI-60 screening: Log(GI50),"cell line BT-549 (BR:BT-549), TMI sheet",-5.8
same,GI50,"cell line BT-549 (BR:BT-549), TMI sheet, read-out: NCI-60 screening: Raw GI50",1.6 µM
same,NCI-60 screening: Log(GI50),"cell line CCRF-CEM (LE:CCRF-CEM), TMI sheet",-6
same,NCI-60 screening: Log(GI50),"cell line COLO 205 (CO:COLO 205), TMI sheet",-5.86
same,GI50,"cell line COLO 205 (CO:COLO 205), TMI sheet, read-out: NCI-60 screening: Raw GI50",1.4 µM
same,NCI-60 screening: Log(GI50),"cell line EKVX (LC:EKVX), TMI sheet",-5.71
same,GI50,"cell line EKVX (LC:EKVX), TMI sheet, read-out: NCI-60 screening: Raw GI50",1.9 µM
same,NCI-60 screening: Log(GI50),"cell line HCC-2998 (CO:HCC-2998), TMI sheet",-5.82
same,GI50,"cell line HCC-2998 (CO:HCC-2998), TMI sheet, read-out: NCI-60 screening: Raw GI50",1.5 µM
same,NCI-60 screening: Log(GI50),"cell line HCT-15 (CO:HCT-15), TMI sheet",-5.76
same,GI50,"cell line HCT-15 (CO:HCT-15), TMI sheet, read-out: NCI-60 screening: Raw GI50",1.7 µM
same,NCI-60 screening: Log(GI50),"cell line HCT-116 (CO:HCT-116), TMI sheet",-5.82
same,GI50,"cell line HCT-116 (CO:HCT-116), TMI sheet, read-out: NCI-60 screening: Raw GI50",1.5 µM
same,NCI-60 screening: Log(GI50),"cell line HL-60(TB) (LE:HL-60(TB)), TMI sheet",-6.12
same,NCI-60 screening: Log(GI50),"cell line HOP-62 (LC:HOP-62), TMI sheet",-6.23
same,GI50,"cell line HOP-62 (LC:HOP-62), TMI sheet, read-out: NCI-60 screening: Raw GI50",0.59 µM
same,NCI-60 screening: Log(GI50),"cell line HOP-92 (LC:HOP-92), TMI sheet",-5.6
same,NCI-60 screening: Log(GI50),"cell line HT29 (CO:HT29), TMI sheet",-5.82
same,GI50,"cell line HT29 (CO:HT29), TMI sheet, read-out: NCI-60 screening: Raw GI50",1.5 µM
same,NCI-60 screening: Log(GI50),"cell line K-562 (LE:K-562), TMI sheet",-6.17
same,NCI-60 screening: Log(GI50),"cell line KM12 (CO:KM12), TMI sheet",-5.68
same,GI50,"cell line KM12 (CO:KM12), TMI sheet, read-out: NCI-60 screening: Raw GI50",2.1 µM
same,NCI-60 screening: Log(GI50),"cell line LOX IMVI (ME:LOX IMVI), TMI sheet",-5.96
same,GI50,"cell line LOX IMVI (ME:LOX IMVI), TMI sheet, read-out: NCI-60 screening: Raw GI50",1.1 µM
same,NCI-60 screening: Log(GI50),"cell line M14 (ME:M14), TMI sheet",-5.82
same,GI50,"cell line M14 (ME:M14), TMI sheet, read-out: NCI-60 screening: Raw GI50",1.5 µM
same,NCI-60 screening: Log(GI50),"cell line MALME-3M (ME:MALME-3M), TMI sheet",-5.8
same,GI50,"cell line MALME-3M (ME:MALME-3M), TMI sheet, read-out: NCI-60 screening: Raw GI50",1.6 µM
same,NCI-60 screening: Log(GI50),"cell line MCF7 (BR:MCF7), TMI sheet",-6.5
same,NCI-60 screening: Log(GI50),"cell line MDA-MB-435 (ME:MDA-MB-435), TMI sheet",-5.75
same,NCI-60 screening: Log(GI50),"cell line MOLT-4 (LE:MOLT-4), TMI sheet",-6.23
same,GI50,"cell line MOLT-4 (LE:MOLT-4), TMI sheet, read-out: NCI-60 screening: Raw GI50",0.59 µM
same,NCI-60 screening: Log(GI50),"cell line NCI-H23 (LC:NCI-H23), TMI sheet",-6.33
same,NCI-60 screening: Log(GI50),"cell line NCI-H226 (LC:NCI-H226), TMI sheet",-5.84
same,GI50,"cell line NCI-H226 (LC:NCI-H226), TMI sheet, read-out: NCI-60 screening: Raw GI50",1.4 µM
same,NCI-60 screening: Log(GI50),"cell line RPMI-8226 (LE:RPMI-8226), TMI sheet",-5.83
same,GI50,"cell line RPMI-8226 (LE:RPMI-8226), TMI sheet, read-out: NCI-60 screening: Raw GI50",1.5 µM
same,NCI-60 screening: Log(GI50),"cell line SF-268 (CNS:SF-268), TMI sheet",-5.81
same,GI50,"cell line SF-268 (CNS:SF-268), TMI sheet, read-out: NCI-60 screening: Raw GI50",1.5 µM
same,NCI-60 screening: Log(GI50),"cell line SF-295 (CNS:SF-295), TMI sheet",-5.81
same,GI50,"cell line SF-295 (CNS:SF-295), TMI sheet, read-out: NCI-60 screening: Raw GI50",1.5 µM
same,NCI-60 screening: Log(GI50),"cell line SF-539 (CNS:SF-539), TMI sheet",-5.88
same,NCI-60 screening: Log(GI50),"cell line SK-MEL-5 (ME:SK-MEL-5), TMI sheet",-5.79
same,GI50,"cell line SK-MEL-5 (ME:SK-MEL-5), TMI sheet, read-out: NCI-60 screening: Raw GI50",1.6 µM
same,NCI-60 screening: Log(GI50),"cell line SK-MEL-28 (ME:SK-MEL-28), TMI sheet",-5.45
same,NCI-60 screening: Log(GI50),"cell line SNB-19 (CNS:SNB-19), TMI sheet",-5.65
same,GI50,"cell line SNB-19 (CNS:SNB-19), TMI sheet, read-out: NCI-60 screening: Raw GI50",2.2 µM
same,NCI-60 screening: Log(GI50),"cell line SR (LE:SR), TMI sheet",-6.56
same,NCI-60 screening: Log(GI50),"cell line SW-620 (CO:SW-620), TMI sheet",-5.72
same,GI50,"cell line SW-620 (CO:SW-620), TMI sheet, read-out: NCI-60 screening: Raw GI50",1.9 µM
same,NCI-60 screening: Log(GI50),"cell line T-47D (BR:T-47D), TMI sheet",-5.72
same,GI50,"cell line T-47D (BR:T-47D), TMI sheet, read-out: NCI-60 screening: Raw GI50",1.9 µM
same,NCI-60 screening: Log(GI50),"cell line U251 (CNS:U251), TMI sheet",-5.82
same,GI50,"cell line U251 (CNS:U251), TMI sheet, read-out: NCI-60 screening: Raw GI50",1.5 µM
same,NCI-60 screening: Log(GI50),"cell line UACC-62 (ME:UACC-62), TMI sheet",-5.82
same,GI50,"cell line UACC-62 (ME:UACC-62), TMI sheet, read-out: NCI-60 screening: Raw GI50",1.5 µM
same,NCI-60 screening: Log(GI50),"cell line UACC-257 (ME:UACC-257), TMI sheet",-5.7
same,GI50,"cell line UACC-257 (ME:UACC-257), TMI sheet, read-out: NCI-60 screening: Raw GI50",2 µM
same,GI50,read-out: GI50,1.5 µM and 2.4 µM
same,GI50,read-out: NCI-60 screening: Raw GI50,1.5 µM
